From patent publication US5461057A, “Hydro-ethano-indeno-pyridines” (priority 1994, dated 1995)
Where two headings read alike, the source gives them in different places.

Key:
[1] = biological target: T1, ICAM-1 (Homo sapiens, UniProt P05362); test: HL-60 cell adhesion to recombinant soluble ICAM-1; type: cell-based; conditions: HL-60 cells
T1 construct: recombinant soluble ICAM-1 (2 μg/well)
Method: For measurement of cell adhesion to ICAM-1, HL-60 human leukemia cells were induced to differentiate in the presence of DMSO for 6 days. Adhesion of DMSO-differentiated HL-60 cells to recombinant soluble ICAM-1 (2 μg/well) was measured as described above for LOX cell adhesion, except that the adhesion was allowed to proceed for 30 minutes, rather than 1 hour, at 37° C.
ICAM-1 is a cell surface adhesion molecule that participates in cell-cell adhesion interactions, rather than cell-matrix adhesion interactions.

[2] = Calcein cytotoxicity assay; type: cell-based; conditions: human, lox melanoma cells, calcein AM assay; for CC50 at 2 h: read-out: 2 Hr Tox LD50
[3] = biological target: ELAM-1 (Homo sapiens, UniProt P16581); test: cell-based
Chain of ELAM-1 (P16581 22-610): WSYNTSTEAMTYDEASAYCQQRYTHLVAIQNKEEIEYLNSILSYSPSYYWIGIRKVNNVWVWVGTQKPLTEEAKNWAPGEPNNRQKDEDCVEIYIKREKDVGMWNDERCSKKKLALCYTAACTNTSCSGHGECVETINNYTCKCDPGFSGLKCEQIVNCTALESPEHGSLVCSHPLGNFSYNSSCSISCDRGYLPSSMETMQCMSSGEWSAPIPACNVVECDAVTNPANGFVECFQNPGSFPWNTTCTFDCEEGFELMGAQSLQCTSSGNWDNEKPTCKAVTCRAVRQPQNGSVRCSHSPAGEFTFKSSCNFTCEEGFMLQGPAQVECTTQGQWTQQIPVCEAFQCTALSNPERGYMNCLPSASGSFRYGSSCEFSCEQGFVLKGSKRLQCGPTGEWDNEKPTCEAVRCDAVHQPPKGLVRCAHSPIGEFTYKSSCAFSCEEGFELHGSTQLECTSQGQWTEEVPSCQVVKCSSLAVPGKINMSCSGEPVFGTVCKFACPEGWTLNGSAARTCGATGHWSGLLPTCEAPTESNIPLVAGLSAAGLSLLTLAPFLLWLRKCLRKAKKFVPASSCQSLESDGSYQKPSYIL
Method: Cell adhesion to ELAM-1 was measured essentially as described previously (Pal et al., J. Biomed. Res. 2: 53, 1992). Undifferentiated HL-60 leukemia cells were prelabelled for 30 minutes with 1 μM calcein AM in DPBS without calcium or magnesium, and the cells were washed twice with the same medium before addition to 96-well plates containing monolayers of mouse L cells (5×10^4 cells/well) transfected with cDNA for the adhesion molecule ELAM-1. Adhesion was allowed to proceed for 30 minutes at room temperature before washing and quantitation of the remaining fluorescent HL-60 cells as described above.
ELAM-1 (E-selectin) is a member of the selectin class of adhesion molecules.

[4] = test system: LOX human melanoma cell adhesion to polylysine; test: LOX melanoma cell adhesion to polylysine; type: cell-based; conditions: read-out: Poly Lys IC50
[5] = test system: histamine-induced dyspnea; test: Bronchodilator (in vivo) Guinea Pig Dyspnea; conditions: 100 mg/kg, oral, one hour before histamine challenge
Method in brief: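 Fasted, unanesthetized guinea pigs (250-350 g) received the test drug orally one hour before exposure to an aerosolized 0.1% histamine solution. Onset of dyspnea was recorded, and data were expressed as number tested over number survived.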

[6] = test system: LOX human melanoma cells; test: Tumor cell invasion through collagen/fibronectin coated membranes; type: cell-based
Method: […] Cell Invasion Through Collagen/Fibronectin Coated Membranes:
Nucleopore polycarbonate membranes (8 μm pore size) were coated with 0.05 ml of type I collagen and allowed to dry overnight. 210 μl of serum free DMEM with BSA was added to each Boyden chamber. Membranes were placed in chambers and upper chambers were screwed on. Human fibronectin (50 μl of 0.1 mg/ml solution in DMEM with BSA) was added to the top chamber and allowed to sit on membranes for 1 hour at room temperature. Compounds (50 μl) at 10× concentration in DMEM with BSA were added to the chambers. LOX melanoma cells were detached from flasks with trypsin/EDTA solution and resuspended in RPMI with 10% fetal bovine serum. Cells were centrifuged, washed 2× with DMEM with BSA, and resuspended in 10 ml of DMEM with BSA. LOX cells (0.45 ml of 7.8×10^5 cells per ml) were added to each chamber and chambers were incubated for 5 hours at 37° C. The medium was removed from the upper chamber by aspiration, the top chamber was unscrewed, and the membrane was removed. The membrane was inverted, pinned to a dissecting tray, and fixed with Diff Quik fixative for 3 minutes The fixative was then removed and Diff Quik Stain was added for 2 minutes. The stain was decanted and membranes were rinsed with distilled water. Membranes were inverted onto glass slides, and non-invading cells were wiped away with a cotton swab. Permount was added to the slide and the membrane was covered with a cover slip. The number of cells that invaded was quantitated on a Nikon TMS microscope with C-2 Image Analyzer software (Olympus Corp.).
The greater potency of the compounds in this assay (IC50 for compound B<400 nM) may result from the longer duration of this assay (5 hours) relative to the fibronectin adhesion assay (1 hour).

[7] = test system: LOX human melanoma cell adhesion to human fibronectin; test: LOX melanoma cell adhesion to fibronectin; type: cell-based; conditions: Homo sapiens, LOX; for inhibition at 10 µM: read-out: % Inhibition at 10 μM; for inhibition at 50 µM: read-out: % Inhibition at 50 μM
Method in brief: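 Compound added to fibronectin-coated (140 ng/well), BSA-blocked wells before LOX cells (1×10^5/well, detached with urea/EDTA). Cells adhered 1 h at 37 °C, then washed. Adherent cells quantified by calcein AM fluorescence (485/530 nm); IC50 for adhesion inhibition.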

[8] = test system: B16-F10 mouse melanoma cell adhesion to fibronectin; test: B16-F10 melanoma cell adhesion to fibronectin; type: cell-based; conditions: read-out: B16 FN IC50
Method: (§1) Adhesion assays were run essentially as described previously (Pai et al., J. Biomed. Res. 2: 53, 1992). 96-well plates were coated with human fibronectin (140 ng/well), human vitronectin (75 ng/well), human collagen I (100 ng/well), human collagen IV (100 ng/well), human fibrinogen (1 μg/well), murine laminin (600 ng/well), or polylysine, and incubated overnight in a humidified 37° C. incubator. Excess fibronectin or other substrate was then removed and 0.2 ml of 2 mg/ml bovine serum albumin (BSA)in Dulbecco's phosphate-buffered saline (DPBS) was added to each well, incubated for 2 hours at 37° C., and removed. LOX human melanoma cells, M27 murine lung carcinoma cells or B16F10 mouse melanoma cells were detached from tissue culture flasks with RPMI medium containing 0.2M urea and 10 mM EDTA, and 0.18 ml of cells were added to each well to a final cell concentration of 1×10^5 cells/well. For inhibition studies 20 μl of 10× compound was added to the wells prior to cell addition. Cells were allowed to adhere for 1 hour at 37° C. The wells were then gently washed twice with 0.2 ml DPBS. The fluorescent dye calcein AM (Molecular Probes, Eugene Oreg.) in DPBS (0.1 ml of 1 μM) was added to each well, and the plates were incubated for 1 hour at room temperature. Adherent cells were quantitated by reading the fluorescence on a Cytofluor 2300 fluorescent plate reader (Millipore) at 485 nm excitation and 530 nm emission.

[9] = MTT cytotoxicity assay; type: cell-based; conditions: human, lox melanoma cells, read-out: MTT 1 Hr LD50
Method: LOX human melanoma cells, in RPMI medium with 2 mg/ml BSA and 25 mM HEPES, pH 7.4, were seeded at 4×10^4 cells/well in 96-well microtiter plates and grown overnight in a humidified 37° C. incubator. On the following day, the medium was aspirated and wells were washed once with 0.1 ml of DPBS. Compounds (0.1 ml) in DPBS were added to wells in quadruplicate at appropriate concentrations. The cells were then incubated with test compound for 1 hour at 37° C. Wells were aspirated and washed 2× with 0.1 ml DPBS. MTT [3-(4,5-Dimethylthiazol-2-yl)-2,5-diphenyltetrazolium bromide] (0.1 ml of 1 mg/ml solution in PBS from Sigma Chemical Co.) was added to each well and incubated for 2 hour at 37° C. MTT was aspirated and 0.1 ml of 50% N,N-dimethylformamide with 20% sodium dodecyl sulfate was added to each well. Plates were shaken for 10 minutes on a Titer-Plate shaker (Labline) at room temperature. Optical density was read at 570 nm with a plate-reading spectrophotometer (Dynatech MR5000).

[10] = test system: M27 murine lung carcinoma cell adhesion to fibronectin; test: M27 lung carcinoma cell adhesion to fibronectin; type: cell-based; conditions: Mus musculus; read-out: M27 FN IC50
Method: as §1

[11] = test system: LOX human melanoma cell adhesion to human collagen I; test: LOX cell adhesion to collagen I; type: cell-based; conditions: read-out: Collagen I IC50
Method: as §1

[12] = test system: LOX human melanoma cell adhesion to murine laminin; test: LOX cell adhesion to laminin; type: cell-based; conditions: read-out: Laminin IC50
Method: as §1

[13] = test system: LOX human melanoma cell adhesion to human fibrinogen; test: LOX cell adhesion to fibrinogen; type: cell-based; conditions: read-out: Fibrinogen IC50
Method: as §1

[14] = test system: LOX human melanoma cell adhesion to human collagen IV; test: LOX cell adhesion to collagen IV; type: cell-based; conditions: read-out: Collagen IV IC50
Method: as §1

[15] = test system: LOX human melanoma cell adhesion to human vitronectin; test: LOX cell adhesion to vitronectin; type: cell-based; conditions: read-out: Vitronectin IC50
Method: as §1

T1 sequence (P05362 28-480 limits assumed): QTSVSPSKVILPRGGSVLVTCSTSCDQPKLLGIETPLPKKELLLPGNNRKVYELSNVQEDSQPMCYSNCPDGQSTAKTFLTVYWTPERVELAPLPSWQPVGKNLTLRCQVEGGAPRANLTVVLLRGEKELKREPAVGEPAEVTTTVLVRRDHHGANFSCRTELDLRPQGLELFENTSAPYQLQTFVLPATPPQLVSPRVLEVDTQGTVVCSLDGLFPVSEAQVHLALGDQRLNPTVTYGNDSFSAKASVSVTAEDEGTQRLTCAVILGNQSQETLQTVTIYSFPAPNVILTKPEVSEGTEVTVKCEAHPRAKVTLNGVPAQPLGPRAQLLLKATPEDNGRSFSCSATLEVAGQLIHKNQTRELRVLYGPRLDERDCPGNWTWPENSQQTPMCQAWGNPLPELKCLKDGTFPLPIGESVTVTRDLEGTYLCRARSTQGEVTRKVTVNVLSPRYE

With `CSc1ccc(C2=C3CC4CCC(C3c3ccccc32)N4C)cc1` (centres unmarked) [F, 1SR:3RS:9b-1,3 Ethano-2-methy-5-(p-methylmercaptophenyl)-1,3,4,9b-tetrahydro-2H-indeno-(2h-indeno) [1,2-c]pyridine] the IC50 [1] was 16.8 µM, the CC50 at 2 h [2] was 43.3 µM and the CC50 at 6 h ([2]; 6 hours, read-out: 6 Hr Tox LD50) was 19.9 µM. For the same compound, the IC50 [3] was > 50 µM, the IC50 [4] was 24.4 µM and the responders at 100 mg/kg ([5]; Cavia porcellus, 1 h, read-out: DYSP survivors (converted)) was 0%. The IC50 ([6]; Homo sapiens, 5 hours, read-out: Invasion IC50) was 0.52 µM, the “inhibition of in vitro tumor cell invasion” value ([6]; fibronectin/collagen matrix) was “inhibit in vitro tumor cell invasion through a fibronectin/collagen matrix” and the IC50 ([7]; 1 h, read-out: LOX FN IC50) was 5.1 µM. It also gave an inhibition at 10 µM [7] of 49.4%, an inhibition at 50 µM [7] of 102% and an IC50 [8] of 24.2 µM. For the same compound, the CC50 at 1 h [9] was 51.7 µM and the IC50 [10] was 8.7 µM.

In the case of `CN1C2CCC1C1C(=C(c3ccccc3C(F)(F)F)c3ccccc31)C2` (centres unmarked) [Compound S], the IC50 [11] is reported as 11.6 µM, the IC50 [12] is reported as 7.7 µM and the CC50 at 2 h [2] is reported as > 250 µM. The IC50 [4] was > 250 µM, the IC50 [13] was 15.7 µM and the DYSP survivors [5] was 0/3. The inhibition at 10 µM ([7]; 10 μM) was -4.4%, the inhibition at 50 µM ([7]; 50 μM) was 90.2% and the IC50 ([7]; Table 4, 1 hour adhesion, read-out: LOX FN IC50) was 17.7 µM. For the same compound, the IC50 ([7]; Table 5, read-out: Fibronectin IC50) was 17.7 µM, the IC50 [14] was 19.2 µM and the IC50 [15] was 20.2 µM.
